Reference: patent publication US20110172182A1, “Carboxyethylated Cyclodextrin Polysulfates Useful As Medicaments” (ARCARIOS B.V., priority 2008, published 2011)

Key:
normal pooled plasma = test: Blood coagulation activities (aPTT, PT, fibrinogen) in normal pooled plasma; parameters: species or system human; conditions: after incubation with 50 or 100 μg/ml
Protocol: MA-CDPS, HP-CDPS, CE-CDPS and CDPS (as defined in examples 3-4 and characterised in table 1) were prepared as buffered solutions at various concentrations. The polysaccharides were incubated with normal pooled plasma prepared out of 40 healthy volunteers and analyzed for their effects on activated partial thromboplastin time (aPTT), prothrombin time (PT) and fibrinogen levels on a STA Compact® coagulation analyzer (available from Diagnostica Stago, Asnieres, France) according to the manufacturers instructions.

[1] = test system: healthy donor thrombocytes; test: Platelet activation (CD62p, flow cytometry) by HIT patient anti-heparin/PF4 antibodies; format: cell-based, human; conditions: for ratio: % CD62p+ (with substance)/% CD62p+ (without) / ΔCD62p+ %: percentage increases in CD62p positive platelets: 0.3 IU heparin or 5 μg/ml polysaccharide
Protocol: The activation of healthy donor thrombocytes by HIT patient anti-heparin/PF4 antibodies in the presence of heparin and the differently sulfated forms of β-cyclodextrin was tested. […] The expression of CD62p by the activated platelets was assayed by means of flow cytometry with a FC500 analyzer (available from Beckman Coulter, Belgium). Platelet-rich plasma solution (PRP) was prepared by slow centrifugation (10 minutes at 180 g) of fresh citrate anti-coagulated blood (1:9 v/v, 0.129 mol/L or 3.8% trisodium citrate buffer), obtained from normal donors. HIT Ab positive plasma samples from patients and HIT Ab negative control plasma from healthy donors were prepared by double centrifugation (15 minutes at 2230 rpm) of fresh citrate anti-coagulated blood. 70 μl of PRP was incubated with 20 μL of HIT Ab containing plasma optionally in the presence of heparin (0.3 IU/ml) or the relevant β-cyclodextrin derivative (5 μg/ml). Experiments with each HIT Ab positive plasma sample were repeated independently using thrombocytes of 2 donors (A and B), to avoid the possibility of non-reactive platelets.
Following the initial 40 minutes incubation step, 5 μl of the platelets solution was transferred to a fresh tube with 85 μL phosphate buffered saline (PBS) containing 1% bovine serum albumin (BSA) and 0.1% Na-azide, 5 μl (0.25 μg) monoclonal anti-CD41 antibodies (Ab) (phycoerythrin-Texas Red Energy coupled dye (ECD)-conjugated, Beckman Coulter) and 5 μl (0.125 μg) of anti-CD62p Ab (phycoerythrin (PE)-conjugated, Beckman Coulter). CD41 (Glycoprotein […]) is a selective marker of platelets and platelet precursors. CD62p is a constituent of alpha granules and is released to the platelet surface on activation.
After 20 minutes of incubation at room temperature, the total volume of the platelet suspension was adjusted to 600 μL buffered solution and evaluated without delay by flow cytometry. 20,000 events per sample were analysed and the platelet populations were gated by side scatter characteristics and the platelet marker CD41. The fraction of activated platelets among the total platelet population was determined and relative CD62p ratios to the internal controls were calculated. [ratio: % CD62p^+ (0.3 IU Heparine or 5 μg/ml β-cyclodextrin derivative)/% CD62p^+ (0 IU Heparine or 0 μg/ml β-cyclodextrin derivative)]. Test results for the heparin treated platelets were evaluated by the scoring system described in Thromb. Haemost. (1999) 82:1255-1259. Control tests were scored positive when the calculated ratios of at least 2 donors were more then 2, based on previously obtained results with normal individuals. To evaluate the potential of the different β-cyclodextrin derivatives to induce platelet activation, both the percentages and ratios of CD62p^+ platelets after incubation with the respective β-cyclodextrin were statistically compared to the percentage and the ratio of CD62p^+ platelets after heparin incubation.

C57BI/6 male mice = test: Collagenase-induced knee osteoarthritis in mice, histopathology; format: in vivo
Protocol: Knee osteoarthritis was induced by injecting the right knees of adult (10 weeks) C57BI/6 male mice with 10 μl of a 2 U/μl collagenase type VII (Sigma C-9572, available from Sigma-Aldrich Belgium) solution. The left knee of these animals was injected with 10 μl PBS and served as a control. Two groups of each 8 mice were randomized on weight, the first group was injected subcutaneously once weekly, with 1 mg/kg of the CE-CDPS of example 3, the second group was treated with saline. Treatment was initiated three days after the mice received their intra-articular injection. The animals were fed a standard diet with tap water ad libitum and their weight was recorded twice a week. The mice were sacrificed three weeks after induction of knee osteoarthritis and the liver, kidneys and knee joints were fixed immediately in 2% neutral buffered paraformaldehyde (Fluka 76240, available from Sigma-Aldrich Belgium).
After fixation, knee joints were decalcified in 0.5 M EDTA in PBS and embedded in paraffin. 5μ tissue sections were cut and stained with haematoxylin and eosin for an analysis of the general morphology or with safranin-O for an assessment of proteoglycan content. Each 100 μm, 3 sections of the joint were evaluated.
Stained slides were submitted for evaluation. The following parameters were evaluated: synovial inflammation, fibrosis, osteophytes and erosion of cartilage. Synovial inflammation was graded from 0 to +3 as follows: 0 no changes from normal; +1 mild changes; +2 moderate changes; and +3 severe changes.
Fibrosis was scored as follows: 0 no changes from normal; +1 fibrosis without metaplasia; +2 fibrosis associated with chondroplasia; +3 fibrosis associated with metaplastic bone. Osteophytes were graded from 0 to +4 referring to the amount of osteophytes observed, with a maximum score of 1 per compartment.
Cartilage erosion was graded from 0 to +3 as follows: 0 no changes from normal; +1 only superficial erosion; +2 loss of proteoglycan in one compartment; and +3 loss of proteoglycan in different compartments. In this scoring system the femoral/tibial junction as a whole was taken in consideration by 2 independent investigators.

[2] = HIT ab plasma pat1, platelet donor dA
[3] = HIT ab plasma pat1, platelet donor dB
[4] = HIT ab plasma pat2, platelet donor dA
[5] = HIT ab plasma pat2, platelet donor dB
[6] = HIT ab plasma pat3, platelet donor dA
[7] = HIT ab plasma pat3, platelet donor dB
[8] = HIT ab plasma pat4, platelet donor dA
[9] = HIT ab plasma pat4, platelet donor dB
[10] = in the presence of plasma samples of individuals that had developed HIT Ab
[11] = 1 mg/kg subcutaneously once weekly, OA knees

With “Sulfated 6-monoamino-6-monodeoxy β-cyclodextrin [MA-CDPS]” the fibrinogen concentrations (normal pooled plasma) was “Minor decreases”, the “ratio: % CD62p+ (with substance)/% CD62p+ (without)” value (from here on “ratio: % CD62p+ … (without)”) [1, 2] was 5.2 and the “ΔCD62p+ %: percentage increases in CD62p positive platelets” value (shortened to “ΔCD62p+ %: percentage increases”) [1, 2] was 74.8%. The “ratio: % CD62p+ … (without)” value [1, 3] was 5.5, the “ΔCD62p+ %: percentage increases” value [1, 3] was 69.9% and the “ratio: % CD62p+ … (without)” value [1, 4] was 1.4. The “ΔCD62p+ %: percentage increases” value [1, 4] was 9.6%, the “ratio: % CD62p+ … (without)” value [1, 5] was 3.5 and the “ΔCD62p+ %: percentage increases” value [1, 5] was 17.4%. For the same substance, the “ratio: % CD62p+ … (without)” value [1, 6] was 1.9, the “ΔCD62p+ %: percentage increases” value [1, 6] was 16.7% and the “ratio: % CD62p+ … (without)” value [1, 7] was 8.2. The “ΔCD62p+ %: percentage increases” value [1, 7] was 32.6%, the “ratio: % CD62p+ … (without)” value [1, 8] was 3.5 and the “ΔCD62p+ %: percentage increases” value [1, 8] was 51.1%. The “ratio: % CD62p+ … (without)” value [1, 9] was 3.1, the “ΔCD62p+ %: percentage increases” value [1, 9] was 63.6% and the platelet activation [1, 10] was “induced platelet activation”.

In the case of “Sulfated (2-carboxyethyl)-β-cyclodextrin [CE-CDPS]”, the fibrinogen concentrations (normal pooled plasma) is reported as “Minor decreases”, the “ratio: % CD62p+ … (without)” value [1, 2] is reported as 1.8 and the “ΔCD62p+ %: percentage increases” value [1, 2] is reported as 13.9%. For the same substance, the “ratio: % CD62p+ … (without)” value [1, 3] was 2.2, the “ΔCD62p+ %: percentage increases” value [1, 3] was 14.4% and the “ratio: % CD62p+ … (without)” value [1, 4] was 1.1. The “ΔCD62p+ %: percentage increases” value [1, 4] was 2.4%, the “ratio: % CD62p+ … (without)” value [1, 5] was 1.2 and the “ΔCD62p+ %: percentage increases” value [1, 5] was 1.1%. For the same substance, the “ratio: % CD62p+ … (without)” value [1, 6] was 1.4, the “ΔCD62p+ %: percentage increases” value [1, 6] was 7.9% and the “ratio: % CD62p+ … (without)” value [1, 7] was 2.7. The “ΔCD62p+ %: percentage increases” value [1, 7] was 10.2%, the “ratio: % CD62p+ … (without)” value [1, 8] was 2.2 and the “ΔCD62p+ %: percentage increases” value [1, 8] was 22.9%. The “ratio: % CD62p+ … (without)” value [1, 9] was 2.4, the “ΔCD62p+ %: percentage increases” value [1, 9] was 45.0% and the platelet activation [1, 10] was “do not significantly activate platelets”. For the same substance, the “cross-reactivity with the heparin/PF4 antibodies” value ([1]; paired analysis versus heparin, ratios and percentages of CD62p positive cells) was “no cross-reactivity”, the osteophyte growth (C57BI/6 male mice; [11]) was “not inhibited” and the pannus formation (C57BI/6 male mice; [11]) was “not inhibited”. The synovial inflammation (C57BI/6 male mice; [11]) was “not inhibited”, the “weight of the animals” value (C57BI/6 male mice; 1 mg/kg subcutaneously once weekly, three weeks) was “did not affect” and the “overall cartilage damage (Safranine O staining)” value (C57BI/6 male mice; 1 mg/kg subcutaneously once weekly, versus PBS-treated) was “reduced”. For the same substance, the “cartilage proteoglycan depletion in osteoarthritis knee joints” value (C57BI/6 male mice; collagenase-induced knee-osteoarthritis in mice) was “prevented”.

“Sulfated (2-hydroxypropyl)-β-cyclodextrin [HP-CDPS]” was tested, and the fibrinogen concentrations (normal pooled plasma) was “Minor decreases”, the “ratio: % CD62p+ … (without)” value [1, 2] was 4.9 and the “ΔCD62p+ %: percentage increases” value [1, 2] was 67.6%. For the same substance, the “ratio: % CD62p+ … (without)” value [1, 3] was 5.1, the “ΔCD62p+ %: percentage increases” value [1, 3] was 53.0% and the “ratio: % CD62p+ … (without)” value [1, 4] was 1.0. The “ΔCD62p+ %: percentage increases” value [1, 4] was 0.1%, the “ratio: % CD62p+ … (without)” value [1, 5] was 1.1 and the “ΔCD62p+ %: percentage increases” value [1, 5] was 1.2%. For the same substance, the “ratio: % CD62p+ … (without)” value [1, 6] was 2.1, the “ΔCD62p+ %: percentage increases” value [1, 6] was 23.3% and the “ratio: % CD62p+ … (without)” value [1, 7] was 4.7. The “ΔCD62p+ %: percentage increases” value [1, 7] was 17.1%, the “ratio: % CD62p+ … (without)” value [1, 8] was 4.6 and the “ΔCD62p+ %: percentage increases” value [1, 8] was 63.2%. The “ratio: % CD62p+ … (without)” value [1, 9] was 2.8, the “ΔCD62p+ %: percentage increases” value [1, 9] was 60.7% and the platelet activation [1, 10] was “induced platelet activation”.

In the case of heparin, the “ratio: % CD62p+ … (without)” value [1, 2] is reported as 4.2, the “ΔCD62p+ %: percentage increases” value [1, 2] is reported as 45.5% and the “ratio: % CD62p+ … (without)” value [1, 3] is reported as 2.2. For the same substance, the “ΔCD62p+ %: percentage increases” value [1, 3] was 14.3%, the “ratio: % CD62p+ … (without)” value [1, 4] was 2.8 and the “ΔCD62p+ %: percentage increases” value [1, 4] was 45.6%. For the same substance, the “ratio: % CD62p+ … (without)” value [1, 5] was 3.9, the “ΔCD62p+ %: percentage increases” value [1, 5] was 15.1% and the “ratio: % CD62p+ … (without)” value [1, 6] was 4.3. For the same substance, the “ΔCD62p+ %: percentage increases” value [1, 6] was 60.3%, the “ratio: % CD62p+ … (without)” value [1, 7] was 8.2 and the “ΔCD62p+ %: percentage increases” value [1, 7] was 42.3%. For the same substance, the “ratio: % CD62p+ … (without)” value [1, 8] was 2.7, the “ΔCD62p+ %: percentage increases” value [1, 8] was 34.8% and the “ratio: % CD62p+ … (without)” value [1, 9] was 2.8. The “ΔCD62p+ %: percentage increases” value [1, 9] was 56.4%, the “platelet heparin activation ratios % CD62p+ (0.3 IU heparin)/% CD62p+ (0 IU heparin)” value ([1]; all HIT Ab positive plasma samples, the two donors) was “above 2” and the platelet activation ([1]; in the absence of patient's HIT Ab) was “not activated”.
